{
  "source": "patent US20120115912A1",
  "about": "“RXR AGONIST COMPOUNDS AND METHODS” (priority 2009, published 2012)",
  "key": {"primary microglia": {"test_system": "primary microglia", "experiment": "Proteolytic degradation of Aβ by primary microglia", "type": "cell-based, murine", "conditions": "for intracellular Aβ levels: 24 hours drug then 18 hours with 2 μg/mL soluble Aβ", "source_text": "FIG. 5 illustrates graphs showing RXR agonists stimulate Aβ degradation.\nGiven the ability of RXR activation to drive LXR target gene expression, we predicted that agonist treatment should promote the proteolytic degradation of Aβ by microglia. […] Aβ uptake was unaffected by either drug treatment."}, "microglia": {"test_system": "microglia", "experiment": "RXR mediated intracellular Aβ degradation with PPARγ or LXR inhibitors, microglia", "type": "cell-based", "conditions": "inhibitor pretreatment 1.5 hrs, Bexarotene 24 hours, 18 hours 2 ug/mL soluble Aβ", "source_text": "(§1) FIG. 14 illustrates graphs showing RXR mediated intracellular Aβ degradation is prevented by inhibiting PPARγ or LXR.\n(§2) To determine which heterodimer partners are involved in RXR activation driven Aβ intracellular degradation, we inhibited PPARγ and LXR by competitive inhibitors, TO and 22-s-Hydroxycholesterol, respectively. Aβ degradation mediated by either microglia (A) or astrocytes (B) is inhibited with either inhibitor to PPAR or LXR. Additionally, a co-treatment with both inhibitors reduces Aβ degradation further (FIG. 14)."}, "astrocytes": {"test_system": "astrocytes", "experiment": "RXR mediated intracellular Aβ degradation with PPARγ or LXR inhibitors, astrocytes", "type": "cell-based", "conditions": "inhibitor pretreatment 1.5 hrs, Bexarotene 24 hours, 18 hours 2 ug/mL soluble Aβ", "source_text": "as §1, §2"}, "ApoE": {"test_system": "ApoE", "experiment": "ApoE lipidation status in astrocyte conditioned media (native gel electrophoresis, Western)", "type": "cell-based", "conditions": "confluent primary murine astrocytes, increasing doses, 48 hours", "source_text": "FIG. 4 illustrates an immunoassay showing ApoE lipidation status is increased after RXR agonist treatment. […] Conditioned media was subjected to native gel electrophoresis followed by Western analysis for ApoE.\nAstrocyte conditioned media was collected and assessed by native gel electrophoresis. […]. (FIG. 4)."}, "primary astrocytes": {"test_system": "primary astrocytes", "experiment": "Proteolytic degradation of Aβ by primary astrocytes", "type": "cell-based, murine", "source_text": "FIG. 12 illustrates a graph showing RXR agonist stimulate Aβ degradation in astrocytes.\nAs shown above, astrocytes can drive the expression of LXR target genes after RXR activation, we predicted that agonist treatment should also promote the intracellular degradation of Aβ by astrocytes. […]. Aβ uptake was not affected by drug treatments (data not shown)."}, "ApoE knock out microglia": {"test_system": "ApoE knock out microglia", "experiment": "Intracellular Aβ degradation in ApoE knock out microglia", "type": "cell-based, murine"}, "[1]": {"test_system": "ApoE knock out astrocytes", "experiment": "Intracellular Aβ degradation in ApoE knock out astrocytes", "type": "cell-based, murine"}, "[2]": {"test_system": "LXR target genes, ABCA1 and ABCG1", "conditions": "murine model of mixed dyslipidemis; cited from earlier work"}, "[3]": {"conditions": "humans, extended periods of use; cited from earlier work"}, "AD animal model": {"test_system": "AD animal model", "experiment": "Contextual fear conditioning in AD animal model", "conditions": "6 month old AD model mice, 100 mg/kg/day oral gavage, 7 days", "description": "Wildtype littermates were used as a control and were orally gavaged with water for 7 days (n=5). Following treatment, animals underwent contextual fear conditioning. The number of times the animals froze over a two minute period was assessed after training."}, "CD36": {"test_system": "CD36", "experiment": "Expression of PPARγ target gene CD36 in primary astrocytes (qRT-PCR)", "conditions": "confluent primary murine astrocytes, 10 nM, time course", "excerpt": "Cell lysates were subjected to quantitative RT-PCR. GAPDH served as a control."}, "[4]": {"test_system": "LXR target genes (ABCA1, ABCG1, ApoE)", "experiment": "RXR activation drives LXR target gene expression in primary astrocytes (Western analysis)", "conditions": "primary murine astrocytes, increasing doses, 24 hours", "excerpt": "Cell lysates were subjected to Western analysis for ABCA1, ABCG1 and ApoE. Actin served as a load control."}, "[5]": {"test_system": "LXR target genes (ABCA1, ABCG1, ApoE)", "conditions": "primary murine microglia, increasing doses, 24 hours", "excerpt": "Cell lysates were subjected to Western analysis for ABCA1, ABCG1, ApoE, and GAPDH as a loading control."}, "[6]": {"conditions": "therapeutic doses, FDA alert issued on May 21, 2007; cited from earlier work"}},
  "note": "Like-named read-outs stand apart in the source and are kept apart here.",
  "data": [
    {"smiles": "CC1=C(/C=C/C(C)=C\\C=C\\C(C)=C\\C(=O)O)C(C)(C)CCC1", "note": "[9cisRA]", "values": [
      {"measurement": "Aβ uptake", "setting": "primary microglia", "result": "unaffected"},
      {"measurement": "intracellular Aβ levels", "setting": "primary microglia", "result": "dose-dependent reduction"}
    ]},
    {"smiles": "CC(C)CC[C@H](O)[C@@H](C)[C@H]1CC[C@H]2[C@@H]3CC=C4C[C@@H](O)CC[C@]4(C)[C@H]3CC[C@]12C", "note": "[22-s-Hydroxycholesterol]", "values": [
      {"measurement": "Bexarotene-driven Aβ degradation in presence of inhibitor", "setting": "microglia", "result": "inhibited"},
      {"measurement": "Bexarotene-driven Aβ degradation in presence of inhibitor", "setting": "astrocytes", "result": "inhibited"}
    ]},
    {"smiles": "C=C(c1ccc(C(=O)O)cc1)c1cc2c(cc1C)C(C)(C)CCC2(C)C", "note": "[Bexarotene]", "values": [
      {"measurement": "lipidation status of ApoE", "setting": "ApoE", "result": "increases the lipidation status of ApoE"},
      {"measurement": "Aβ uptake", "setting": "primary microglia", "result": "unaffected"},
      {"measurement": "intracellular Aβ levels", "setting": "primary microglia", "result": "dose-dependent reduction"},
      {"measurement": "intracellular Aβ levels", "setting": "primary astrocytes; 24 hours drug then 18 hours with 2 ug/mL soluble Aβ", "result": "dose dependent reduction"},
      {"measurement": "Aβ uptake", "setting": "primary astrocytes; data not shown", "result": "not affected"},
      {"measurement": "intracellular Aβ degradation", "setting": "ApoE knock out microglia; with exogenous 1 μg/mL ApoE", "result": "the effect of intracellular Aβ degradation returns"},
      {"measurement": "intracellular Aβ degradation", "setting": "ApoE knock out microglia; without ApoE", "result": "no effect"},
      {"measurement": "intracellular Aβ degradation", "setting": "[1]; with exogenous 1 μg/mL ApoE", "result": "the effect of intracellular Aβ degradation returns"},
      {"measurement": "intracellular Aβ degradation", "setting": "[1]; without ApoE", "result": "no effect"},
      {"measurement": "expression of the LXR target genes, ABCA1 and ABCG1", "setting": "[2]", "result": "induce the expression of the LXR target genes, ABCA1 and ABCG1"},
      {"measurement": "clinical safety profile", "setting": "[3]", "result": "good safety profile"},
      {"measurement": "contextual fear conditioning behavior", "setting": "AD animal model", "result": "significantly improves behavior"},
      {"measurement": "CD36 expression by qRT-PCR", "setting": "CD36", "result": "drives CD36, a PPARγ regulated gene, expression"},
      {"measurement": "expression of ABCA1, ABCG1, and ApoE", "setting": "[4]", "result": "drives the expression of ABCA1, ABCG1 and ApoE"},
      {"measurement": "expression of ABCA1, ABCG1, and ApoE", "setting": "[5]", "result": "drives the expression of ABCA1, ABCG1, and ApoE"}
    ]},
    {"smiles": "CN(CCOc1ccc(CC2SC(=O)NC2=O)cc1)c1ccccn1", "note": "(centres unmarked) [rosiglitazone, 5-[4-[2-(N-methyl-N-(2-pyridyl)amino]ethoxy]benzyl]thiazolidine-2,4-dione]", "values": [
      {"measurement": "risk of heart attack", "setting": "[6]", "result": "significantly increased risk of heart attack"}
    ]}
  ]
}
